{"source": "patent US20090081717A1", "about": "“Compositions and Methods For Signal Generation” (priority 2007, published 2009)", "key": {"alkaline phosphatase": {"tested_on": "alkaline phosphatase", "settings": "1×10^−12 moles alkaline phosphatase in 0.1 M Tris, pH 9.0, 45 sec at room temperature, measured 1 sec", "protocol": "A substrate solution containing 0.8 mg/ml 3-indoxyl phosphate bis(2-amino-2-methyl-1,3-propanediol) salt (Biosynth International) and 0.4 mg/ml lucigenin (Sigma Aldrich) was prepared in 0.1 M Tris buffer, pH 9.0. 10 ul of the sample (blank (0.1 M Tris, pH 9.0 or 1×10^−12 moles alkaline phosphatase in 0.1 M Tris, pH 9.0) was added to plastic tubes. 50 ul of the substrate containing 0% DMSO, 0.1% DMSO (v/v), 1% DMSO) (v/v), 10% DMSO (v/v) and 20% DMSO (v/v) was added to respective tubes and water was added to the substrate in appropriate percentage as a control. The reaction was incubated for 45 sec at room temperature and chemiluminescence was measured for 1 sec using an Optocomp I (MGM) luminometer."}, "[1]": {"assay": "Chemiluminescence of indoxyl phosphate substrate solution with blank sample (no enzyme)", "format": "biochemical", "settings": "blank sample 0.1 M Tris, pH 9.0, no enzyme"}}, "note": "Like-named read-outs stand apart in the source and are kept apart here."}
{"smiles": "CC(N)(CO)CO.CC(N)(CO)CO.O=P(O)(O)Oc1c[nH]c2ccccc12", "note": "[3-indoxyl phosphate bis(2-amino-2-methyl-1,3-propanediol) salt]", "values": [{"measurement": "Alkaline phosphatase chemiluminescence", "setting": "alkaline phosphatase; substrate with 0 vol % DMSO", "result": "895,068 Relative light unit"}, {"measurement": "Alkaline phosphatase chemiluminescence", "setting": "alkaline phosphatase; substrate with 0.1 vol % DMSO", "result": "899,207 Relative light unit"}, {"measurement": "Alkaline phosphatase chemiluminescence", "setting": "alkaline phosphatase; substrate with 1 vol % DMSO", "result": "1,101,369 Relative light unit"}, {"measurement": "Alkaline phosphatase chemiluminescence", "setting": "alkaline phosphatase; substrate with 10 vol % DMSO", "result": "1,909,745 Relative light unit"}, {"measurement": "Alkaline phosphatase chemiluminescence", "setting": "alkaline phosphatase; substrate with 20 vol % DMSO", "result": "2,375,681 Relative light unit"}, {"measurement": "Blank chemiluminescence", "setting": "[1]; substrate with 0 vol % DMSO", "result": 472, "unit": "Relative light units"}, {"measurement": "Blank chemiluminescence", "setting": "[1]; substrate with 0.1 vol % DMSO", "result": 511, "unit": "Relative light units"}, {"measurement": "Blank chemiluminescence", "setting": "[1]; substrate with 1 vol % DMSO", "result": 569, "unit": "Relative light units"}, {"measurement": "Blank chemiluminescence", "setting": "[1]; substrate with 10 vol % DMSO", "result": 1214, "unit": "Relative light units"}, {"measurement": "Blank chemiluminescence", "setting": "[1]; substrate with 20 vol % DMSO", "result": 1917, "unit": "Relative light units"}]}
